In US20250145606A1 (Arcus Biosciences, Inc., priority 2023, published 2025):

Experiments:
Details in all cases: biochemical
[1] = molecular target: c-Kit (Homo sapiens (Human), UniProt P10721); test: Inhibition of c-Kit kinase activity (HTRF KinEASE-TK); type: biochemical
In short: (§1)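 Recombinant kinases (2 nM CSF1R and c-Kit, 10 nM PDGFRα/β, 2× working) preincubated 1 h with compound in 50 mM HEPES pH 7.4, 5 mM MgCl2 (c-Kit) or 10 mM (others), 2 mM MnCl2; 2× ATP: c-Kit 16 μM, PDGFRα 1 μM, PDGFRβ 40 μM, CSF1R 20 μM. 120 min reaction at rt; TR-FRET 665/620 nm; IC50 by 4-parameter fit.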

[2] = molecular target: PDGFRα (Homo sapiens (Human), UniProt P16234); test: Inhibition of PDGFRα kinase activity (HTRF KinEASE-TK)
In short: as §1

[3] = molecular target: PDGFRβ (Homo sapiens (Human), UniProt P09619); test: Inhibition of PDGFRβ kinase activity (HTRF KinEASE-TK)
In short: as §1

[4] = molecular target: CSF1R (Homo sapiens (Human), UniProt P07333); test: Inhibition of CSF1R kinase activity (HTRF KinEASE-TK)
In short: as §1

[5] = molecular target: FLT3 (Homo sapiens (Human), UniProt P36888); test: Inhibition of FLT3 kinase activity (HTRF KinEASE-TK); type: biochemical
Protocol: Inhibition of c-Kit, PDGFRα, PDGFRβ, CSFIR and FLT3 Kinase Activity
Compounds were evaluated to determine the potency with which they inhibit the kinase activity of the following panel of tyrosine kinases: c-Kit (SignalChem, Product #: K06-11BG), PDGFRα (SignalChem, Product #: P12-18G), PDGFRβ (SignalChem, Product #: P13-11G), CSFIR (SignalChem, Product #: C74-11G) and FLT3 (Invitrogen, Product #: PR4666C). Activity was determined as a function of phosphorylated biotinylated TK peptide generated by the transfer of phosphate from ATP as measured by the use of the HTRF KinEASE-TK assay kit (Cisbio, Product #: 62TKOPEJ). Levels of phosphorylated biotinylated TK peptide (Part 61TKOBLC of KinEASE assay kit) are quantified by its capture by phosphor-TK-Antibody-Cryptate (Part of KinEASE assay kit) and XL665-labeled Streptavidin (Part 610SAXLG of KinEASE assay kit) followed by measurement of Time-Resolved Fluorescence Resonance Energy Transfer (TR-FRET) signal. On the day of the assay, compounds were solubilized in DMSO and dispensed into a 384-well white Opti-plate (PerkinElmer, catalog #6007290) to generate a 22 point 1:2 titration. Enzyme solution was prepared for each of the tyrosine kinases in 50 mM HEPES, pH 7.4, 5 mM MgCl2 for c-Kit or 10 mM MgCl2 for FLT3, CSFIR, PDGFRa and PDGFRβ, 2 mM MnCl2, 0.01% Brij-35 and 0.01% BSA. Working enzyme concentrations were prepared for c-Kit at 2 nM (2×), PDGFRa and PDGFRß at 10 nM (2×), CSFIR at 2 nM (2×) and FLT3 at 0.4 nM (2×). Five microliters of enzyme dilution of each tyrosine kinase were added to their respective 384-well white Opti-plate pre-dispensed with compound and allowed to incubate for 1 h at rt. Utilizing the same enzyme buffer recipe, 2x substrate mixes were prepared for each enzyme as follows: For c-Kit, 1.6 μM (2×) TK substrate and 16 μM (2×) ATP (Promega, catalog #V915). For PDGFRα, 3.2 μM TK substrate and 1 μM ATP. For PDGFRβ, 3.2 μM TK substrate and 40 μM ATP. For CSFIR, […] TK substrate and 20 μM ATP. For FLT3, 3.2 μM TK substrate and 100 μM ATP. Reactions were initiated by addition of 5 μL of the respective 2x substrate mix to each well of the plates containing the respective tyrosine kinase enzymes and were allowed to proceed for 120 minutes at rt, except for FLT3, the reaction time is 45 min. Following the reaction, 10 μL of detection mix consisting of 0.2 μM (2×) of Streptavidin-XL665 and 2 μM (2×) of TK-Antibody-Cryptate prepared in detection buffer (Part 62SDBRDF of KinEASE assay kit) was added and then allowed to incubate for 60 min. The TR-FRET signal was quantified by measuring the ratio of emission at 665 nm to 620 nm after excitation at 320 nm by reading on a PerkinElmer Envision multimode reader. Compound potencies (IC50 values) were determined using a standard 4-parameter non-linear regression fit.

CSF1R, sequence (P07333 20-972): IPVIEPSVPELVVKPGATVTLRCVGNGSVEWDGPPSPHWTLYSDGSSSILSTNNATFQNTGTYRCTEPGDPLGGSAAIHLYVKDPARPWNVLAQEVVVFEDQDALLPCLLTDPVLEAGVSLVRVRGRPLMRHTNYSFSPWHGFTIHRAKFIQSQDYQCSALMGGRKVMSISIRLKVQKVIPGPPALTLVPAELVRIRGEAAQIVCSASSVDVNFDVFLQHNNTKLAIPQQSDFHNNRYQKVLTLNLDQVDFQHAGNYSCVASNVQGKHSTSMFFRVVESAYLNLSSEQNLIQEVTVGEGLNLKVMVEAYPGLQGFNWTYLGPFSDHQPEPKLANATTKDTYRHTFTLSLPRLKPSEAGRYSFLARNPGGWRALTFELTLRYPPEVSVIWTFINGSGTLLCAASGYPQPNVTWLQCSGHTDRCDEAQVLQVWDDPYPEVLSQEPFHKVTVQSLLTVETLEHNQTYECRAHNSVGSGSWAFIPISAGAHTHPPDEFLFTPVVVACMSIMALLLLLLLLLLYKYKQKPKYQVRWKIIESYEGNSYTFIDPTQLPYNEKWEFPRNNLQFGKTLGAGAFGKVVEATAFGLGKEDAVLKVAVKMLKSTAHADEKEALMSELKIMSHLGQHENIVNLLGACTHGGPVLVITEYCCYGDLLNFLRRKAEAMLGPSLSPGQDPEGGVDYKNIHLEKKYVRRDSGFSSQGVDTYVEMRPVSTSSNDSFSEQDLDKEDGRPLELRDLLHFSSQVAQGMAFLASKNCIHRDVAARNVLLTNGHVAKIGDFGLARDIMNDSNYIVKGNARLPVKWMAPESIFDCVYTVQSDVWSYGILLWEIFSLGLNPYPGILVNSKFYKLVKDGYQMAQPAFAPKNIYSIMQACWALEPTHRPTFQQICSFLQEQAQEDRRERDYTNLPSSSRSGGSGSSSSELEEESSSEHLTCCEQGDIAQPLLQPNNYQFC
c-Kit, sequence (P10721 26-976): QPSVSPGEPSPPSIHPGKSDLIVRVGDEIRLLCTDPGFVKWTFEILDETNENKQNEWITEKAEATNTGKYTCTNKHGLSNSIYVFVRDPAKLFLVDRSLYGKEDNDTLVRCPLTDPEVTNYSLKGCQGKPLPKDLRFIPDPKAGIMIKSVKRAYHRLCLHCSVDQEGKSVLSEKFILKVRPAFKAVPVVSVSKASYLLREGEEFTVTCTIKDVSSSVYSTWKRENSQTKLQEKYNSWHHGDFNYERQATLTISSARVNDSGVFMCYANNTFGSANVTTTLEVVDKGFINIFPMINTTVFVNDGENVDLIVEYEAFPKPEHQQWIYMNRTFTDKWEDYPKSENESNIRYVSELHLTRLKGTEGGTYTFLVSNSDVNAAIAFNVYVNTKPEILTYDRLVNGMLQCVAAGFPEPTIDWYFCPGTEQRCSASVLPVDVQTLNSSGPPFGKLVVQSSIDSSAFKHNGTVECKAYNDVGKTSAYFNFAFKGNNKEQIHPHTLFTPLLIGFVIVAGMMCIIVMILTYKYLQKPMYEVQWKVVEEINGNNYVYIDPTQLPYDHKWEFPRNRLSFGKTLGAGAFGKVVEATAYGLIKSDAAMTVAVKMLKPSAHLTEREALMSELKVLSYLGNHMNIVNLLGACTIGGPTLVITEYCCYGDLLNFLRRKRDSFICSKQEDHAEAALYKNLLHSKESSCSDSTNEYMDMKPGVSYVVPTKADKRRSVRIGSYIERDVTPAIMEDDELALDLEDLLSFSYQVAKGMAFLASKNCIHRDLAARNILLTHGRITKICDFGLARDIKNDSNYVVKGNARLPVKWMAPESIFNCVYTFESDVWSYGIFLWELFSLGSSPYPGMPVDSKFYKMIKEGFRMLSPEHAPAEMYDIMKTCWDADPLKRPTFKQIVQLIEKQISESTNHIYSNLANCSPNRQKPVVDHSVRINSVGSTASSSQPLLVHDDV
PDGFRα, sequence (P16234 24-1089): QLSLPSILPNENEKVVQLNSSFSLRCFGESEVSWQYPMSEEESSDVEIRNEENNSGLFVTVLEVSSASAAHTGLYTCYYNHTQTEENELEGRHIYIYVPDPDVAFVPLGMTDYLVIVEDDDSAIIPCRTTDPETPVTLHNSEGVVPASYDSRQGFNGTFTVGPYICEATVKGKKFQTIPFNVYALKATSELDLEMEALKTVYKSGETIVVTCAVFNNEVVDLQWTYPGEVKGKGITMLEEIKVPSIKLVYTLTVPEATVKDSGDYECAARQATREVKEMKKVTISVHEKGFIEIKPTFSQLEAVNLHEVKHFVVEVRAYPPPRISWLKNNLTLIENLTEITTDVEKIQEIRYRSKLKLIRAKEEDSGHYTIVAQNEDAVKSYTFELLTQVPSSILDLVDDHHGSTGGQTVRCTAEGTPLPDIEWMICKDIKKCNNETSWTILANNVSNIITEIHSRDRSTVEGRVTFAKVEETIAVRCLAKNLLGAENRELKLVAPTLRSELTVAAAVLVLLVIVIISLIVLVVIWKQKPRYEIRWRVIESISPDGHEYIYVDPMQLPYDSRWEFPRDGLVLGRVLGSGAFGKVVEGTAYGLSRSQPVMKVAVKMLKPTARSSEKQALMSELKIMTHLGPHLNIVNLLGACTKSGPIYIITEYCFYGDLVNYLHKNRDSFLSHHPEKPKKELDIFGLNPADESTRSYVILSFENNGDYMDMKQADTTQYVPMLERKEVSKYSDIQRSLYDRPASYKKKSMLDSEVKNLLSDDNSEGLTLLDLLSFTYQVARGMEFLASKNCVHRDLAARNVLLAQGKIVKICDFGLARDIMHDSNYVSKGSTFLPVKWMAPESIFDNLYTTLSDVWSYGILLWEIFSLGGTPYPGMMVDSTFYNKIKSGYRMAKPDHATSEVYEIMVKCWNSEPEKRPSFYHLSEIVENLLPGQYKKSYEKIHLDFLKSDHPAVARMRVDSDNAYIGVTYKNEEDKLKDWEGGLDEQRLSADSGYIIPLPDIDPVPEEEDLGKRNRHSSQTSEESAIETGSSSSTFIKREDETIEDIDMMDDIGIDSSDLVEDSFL
PDGFRβ, sequence (P09619 33-1106): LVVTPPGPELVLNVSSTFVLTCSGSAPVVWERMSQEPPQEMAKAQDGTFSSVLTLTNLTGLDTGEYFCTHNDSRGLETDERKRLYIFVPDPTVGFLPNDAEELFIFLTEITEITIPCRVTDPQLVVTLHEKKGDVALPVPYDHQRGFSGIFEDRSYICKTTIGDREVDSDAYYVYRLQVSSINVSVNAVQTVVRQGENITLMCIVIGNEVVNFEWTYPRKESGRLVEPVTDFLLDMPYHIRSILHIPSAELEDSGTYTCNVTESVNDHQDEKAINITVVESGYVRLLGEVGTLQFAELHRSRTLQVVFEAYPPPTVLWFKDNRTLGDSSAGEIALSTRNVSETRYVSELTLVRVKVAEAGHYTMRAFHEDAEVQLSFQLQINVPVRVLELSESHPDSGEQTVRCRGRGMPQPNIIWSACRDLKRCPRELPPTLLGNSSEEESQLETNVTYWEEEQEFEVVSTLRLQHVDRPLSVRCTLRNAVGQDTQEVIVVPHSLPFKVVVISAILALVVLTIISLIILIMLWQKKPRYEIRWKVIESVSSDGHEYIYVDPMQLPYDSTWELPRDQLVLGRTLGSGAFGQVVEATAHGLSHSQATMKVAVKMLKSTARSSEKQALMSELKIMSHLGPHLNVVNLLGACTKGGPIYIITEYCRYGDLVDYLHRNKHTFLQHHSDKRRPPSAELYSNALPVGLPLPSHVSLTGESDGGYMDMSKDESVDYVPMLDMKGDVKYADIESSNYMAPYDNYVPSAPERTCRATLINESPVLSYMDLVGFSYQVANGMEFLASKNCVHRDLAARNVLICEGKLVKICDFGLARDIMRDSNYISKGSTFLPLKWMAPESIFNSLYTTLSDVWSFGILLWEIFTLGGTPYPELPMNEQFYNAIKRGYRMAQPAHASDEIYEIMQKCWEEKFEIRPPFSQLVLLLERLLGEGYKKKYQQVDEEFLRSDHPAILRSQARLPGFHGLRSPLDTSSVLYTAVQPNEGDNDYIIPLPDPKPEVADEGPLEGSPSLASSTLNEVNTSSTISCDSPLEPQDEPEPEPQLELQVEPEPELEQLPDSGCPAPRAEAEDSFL
FLT3, sequence (P36888 27-993): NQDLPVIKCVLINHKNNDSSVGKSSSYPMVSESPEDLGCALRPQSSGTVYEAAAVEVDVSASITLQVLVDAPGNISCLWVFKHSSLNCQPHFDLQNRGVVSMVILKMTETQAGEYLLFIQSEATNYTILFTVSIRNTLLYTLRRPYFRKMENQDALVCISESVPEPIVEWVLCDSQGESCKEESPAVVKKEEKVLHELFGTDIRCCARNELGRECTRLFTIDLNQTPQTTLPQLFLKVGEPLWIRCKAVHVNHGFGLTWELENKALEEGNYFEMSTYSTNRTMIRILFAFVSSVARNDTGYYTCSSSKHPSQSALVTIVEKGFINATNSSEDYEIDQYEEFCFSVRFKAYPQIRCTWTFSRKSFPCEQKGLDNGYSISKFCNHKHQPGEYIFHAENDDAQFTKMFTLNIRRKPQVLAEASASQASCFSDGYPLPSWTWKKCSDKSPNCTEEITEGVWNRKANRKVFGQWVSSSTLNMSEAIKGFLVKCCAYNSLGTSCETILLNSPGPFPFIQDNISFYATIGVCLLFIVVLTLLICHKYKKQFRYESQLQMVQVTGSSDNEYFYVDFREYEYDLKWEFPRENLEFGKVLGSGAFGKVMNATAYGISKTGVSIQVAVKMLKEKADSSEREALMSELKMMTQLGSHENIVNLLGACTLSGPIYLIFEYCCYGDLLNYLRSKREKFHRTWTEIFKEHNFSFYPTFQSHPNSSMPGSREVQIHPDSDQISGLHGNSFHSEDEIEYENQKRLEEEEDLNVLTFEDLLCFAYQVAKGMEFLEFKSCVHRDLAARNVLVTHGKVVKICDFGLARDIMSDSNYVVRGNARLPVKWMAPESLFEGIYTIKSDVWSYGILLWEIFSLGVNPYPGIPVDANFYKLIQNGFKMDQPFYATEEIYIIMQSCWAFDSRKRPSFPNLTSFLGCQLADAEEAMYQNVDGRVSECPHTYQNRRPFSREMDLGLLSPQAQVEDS

Structure (SMILES) | IC50 ([1]; HTRF KinEASE-TK) | IC50 ([2]; HTRF KinEASE-TK) | IC50 ([3]; HTRF KinEASE-TK) | IC50 ([4]; HTRF KinEASE-TK) | IC50 ([5]; HTRF KinEASE-TK) | IC50 [1] | IC50 [2] | IC50 [3] | IC50 [4] | IC50 [5]
CC(=O)Nc1ncc(C(=O)Nc2cc(C(=O)Nc3ccc(OC4CC4)cn3)c(F)cc2C)s1 [Example 240, 2-Acetamido-N-[5-[(5-cyclopropyloxypyridin-2-yl)carbamoyl]-4-fluoro-2-methylphenyl]-1,3-thiazole-5-carboxamide] | < 100 nM | > 1000 nM | < 100 nM | > 1000 nM | > 1000 nM |  |  |  |  | 
Cc1cc(F)c(C(=O)N[C@H]2C[C@H]2F)cc1NC(=O)c1cnc(N)s1 [Example 136, 2-Amino-N-[4-fluoro-5-[[(1S,2R)-2-fluorocyclopropyl]carbamoyl]-2-methylphenyl]-1,3-thiazole-5-carboxamide] | 100 to 1000 nM | 100 to 1000 nM | > 1000 nM | > 1000 nM | > 1000 nM |  |  |  |  | 
Cc1cc(F)c(C(=O)Nc2ccc(OC(F)F)cc2)cc1NC(=O)c1cnc(N)s1 [Example 227, 2-Amino-N-[5-[[4-(difluoromethoxy)phenyl]carbamoyl]-4-fluoro-2-methylphenyl]-1,3-thiazole-5-carboxamide] | < 100 nM | < 100 nM | < 100 nM | < 100 nM | > 1000 nM |  |  |  |  | 
Cc1cc(F)c(C(=O)Nc2cnn(C3CC3)c2)cc1NC(=O)c1cnc(N)s1 [Example 161, 2-Amino-N-[5-[(1-cyclopropylpyrazol-4-yl)carbamoyl]-4-fluoro-2-methylphenyl]-1,3-thiazole-5-carboxamide] | < 100 nM | 100 to 1000 nM | 100 to 1000 nM | 100 to 1000 nM | > 1000 nM |  |  |  |  | 
Cc1cc(F)c(C(=O)Nc2ccc(OC3CC3)cn2)cc1NC(=O)c1cnc(NC(=O)C(F)(F)F)s1 [Example 239, N-[5-[(5-cyclopropyloxypyridin-2-yl)carbamoyl]-4-fluoro-2-methylphenyl]-2-[(2,2,2-trifluoroacetyl)amino]-1,3-thiazole-5-carboxamide] | < 100 nM | > 1000 nM | 100 to 1000 nM | > 1000 nM | > 1000 nM |  |  |  |  | 
COC(c1ccc(NC(=O)c2cc(NC(=O)c3cnc(N)s3)c(C)cc2F)nc1)C1CC1 (centres unmarked) [Example 197, 2-Amino-N-[5-[[5-[cyclopropyl(methoxy)methyl]pyridin-2-yl]carbamoyl]-4-fluoro-2-methylphenyl]-1,3-thiazole-5-carboxamide] | < 100 nM | > 1000 nM | 100 to 1000 nM | > 1000 nM | > 1000 nM |  |  |  |  | 
Cc1cc(F)c(C(=O)Nc2cnn(C)c2)cc1NC(=O)c1cnc(N)s1 [Example 167, 2-Amino-N-[4-fluoro-2-methyl-5-[(1-methylpyrazol-4-yl)carbamoyl]phenyl]-1,3-thiazole-5-carboxamide] | < 100 nM | > 1000 nM | > 1000 nM | > 1000 nM | > 1000 nM |  |  |  |  | 
Cc1cc(F)c(C(=O)N[C@H]2CCOC2)cc1NC(=O)c1cnc(NC(=O)N2CCOCC2)s1 [Example 105, N-[5-[[4-fluoro-2-methyl-5-[[(3S)-oxolan-3-yl]carbamoyl]phenyl]carbamoyl]-1,3-thiazol-2-yl]morpholine-4-carboxamide] | < 100 nM | > 1000 nM | > 1000 nM | > 1000 nM | > 1000 nM |  |  |  |  | 
Cc1cnc(NC(=O)c2cc(NC(=O)c3cnc(N)s3)c(C)cc2F)s1 [Example 160, 2-Amino-N-[4-fluoro-2-methyl-5-[(5-methyl-1,3-thiazol-2-yl)carbamoyl]phenyl]-1,3-thiazole-5-carboxamide] | < 100 nM | > 1000 nM | 100 to 1000 nM | 100 to 1000 nM | > 1000 nM |  |  |  |  | 
Cc1cc(F)c(C(=O)Nc2ccc(OC3CC3)cn2)cc1NC(=O)c1cnc(NC(=O)N2CCC2)s1 [Example 6, 2-(Azetidine-1-carbonylamino)-N-[5-[(5-cyclopropyloxypyridin-2-yl)carbamoyl]-4-fluoro-2-methylphenyl]-1,3-thiazole-5-carboxamide] |  |  |  |  |  | < 100 nM | < 100 nM | < 100 nM | < 100 nM | > 1000 nM
Cc1cc(F)c(C(=O)Nc2cnn(C(C)C)n2)cc1NC(=O)c1cnc(N)s1 [Example 171, 2-Amino-N-[4-fluoro-2-methyl-5-[(2-propan-2-yltriazol-4-yl)carbamoyl]phenyl]-1,3-thiazole-5-carboxamide] | < 100 nM | 100 to 1000 nM | 100 to 1000 nM | 100 to 1000 nM | > 1000 nM |  |  |  |  | 
Cc1cc(F)c(C(=O)N[C@@H]2C[C@@H]2F)cc1NC(=O)c1cnc(N)s1 [Example 137] | < 100 nM | 100 to 1000 nM | > 1000 nM | > 1000 nM | > 1000 nM |  |  |  |  | 
Cc1cc(F)c(C(=O)Nc2ccn(C)n2)cc1NC(=O)c1cnc(N)s1 [Example 163, 2-Amino-N-[4-fluoro-2-methyl-5-[(1-methylpyrazol-3-yl)carbamoyl]phenyl]-1,3-thiazole-5-carboxamide] | < 100 nM | > 1000 nM | > 1000 nM | > 1000 nM | > 1000 nM |  |  |  |  | 
Cc1cc(F)c(C(=O)Nc2ccc3c(n2)COC3)cc1NC(=O)c1cnc(N)s1 [Example 120, 2-Amino-N-[5-(5,7-dihydrofuro [3,4-b]pyridin-2-ylcarbamoyl)-4-fluoro-2-methylphenyl]-1,3-thiazole-5-carboxamide] | < 100 nM | > 1000 nM | > 1000 nM | > 1000 nM | > 1000 nM |  |  |  |  | 
Cc1ncc(C(=O)Nc2cc(C(=O)Nc3ccc(C(F)(F)F)cn3)c(F)cc2C)s1 [Example 14, N-[4-Fluoro-2-methyl-5-[[5-(trifluoromethyl)pyridin-2-yl]carbamoyl]phenyl]-2-methyl-1,3-thiazole-5-carboxamide] | < 100 nM | > 1000 nM | > 1000 nM | > 1000 nM | > 1000 nM |  |  |  |  | 
Cc1cc(F)c(C(=O)N[C@H]2C[C@@H]2F)cc1NC(=O)c1cnc(N)s1 [Example 138, 2-Amino-N-[4-fluoro-5-[[(1S,2S)-2-fluorocyclopropyl]carbamoyl]-2-methylphenyl]-1,3-thiazole-5-carboxamide] | < 100 nM | 100 to 1000 nM | > 1000 nM | > 1000 nM | > 1000 nM |  |  |  |  | 
Cc1ncc(NC(=O)c2cc(NC(=O)c3cnc(N)s3)c(C)cc2F)s1 [Example 166, 2-Amino-N-[4-fluoro-2-methyl-5-[(2-methyl-1,3-thiazol-5-yl)carbamoyl]phenyl]-1,3-thiazole-5-carboxamide] | < 100 nM | > 1000 nM | 100 to 1000 nM | 100 to 1000 nM | > 1000 nM |  |  |  |  | 
Cc1ncc(C(=O)Nc2cc(C(=O)Nc3ccn(C4CCC4)n3)c(F)cc2C)s1 [Example 61, N-[5-[(1-Cyclobutylpyrazol-3-yl)carbamoyl]-4-fluoro-2-methylphenyl]-2-methyl-1,3-thiazole-5-carboxamide] | < 100 nM | > 1000 nM | > 1000 nM | > 1000 nM | > 1000 nM |  |  |  |  | 
Nc1ncc(C(=O)Nc2cc(C(=O)Nc3ccc(OC4CC4)cn3)c(F)cc2Br)s1 [Example 236, 2-Amino-N-[2-bromo-5-[(5-cyclopropyloxypyridin-2-yl)carbamoyl]-4-fluorophenyl]-1,3-thiazole-5-carboxamide] | < 100 nM | > 1000 nM | 100 to 1000 nM | 100 to 1000 nM | > 1000 nM |  |  |  |  | 
